Reference: PubChem BioAssay (NCI)
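Values below derive from 48-hour exposures of cells grown in 96-well plates, with endpoints linearly interpolated between the two concentrations bracketing the appropriate inhibition level. Here, GI50 denotes the concentration required for 50% inhibition of growth. TGI: concentration producing complete growth inhibition.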

Experiments:
Experiment in all cases: NCI tumour cell line growth inhibition, 48 h
786-0 renal = test system: 786-0 renal
A498 renal = test system: A498 renal
A549 NSCLC = test system: A549 NSCLC
ACHN renal = test system: ACHN renal
BT-549 breast = test system: BT-549 breast
CAKI-1 renal = test system: CAKI-1 renal
CCRF-CEM leukemia = test system: CCRF-CEM leukemia
COLO 205 colon = test system: COLO 205 colon
DU-145 prostate = test system: DU-145 prostate
EKVX NSCLC = test system: EKVX NSCLC
HCC-2998 colon = test system: HCC-2998 colon
HCT-116 colon = test system: HCT-116 colon
HCT-15 colon = test system: HCT-15 colon
HL-60(TB) leukemia = test system: HL-60(TB) leukemia
HOP-62 NSCLC = test system: HOP-62 NSCLC
HOP-92 NSCLC = test system: HOP-92 NSCLC
HS 578T breast = test system: HS 578T breast
HT29 colon = test system: HT29 colon
IGROV1 ovarian = test system: IGROV1 ovarian
K-562 leukemia = test system: K-562 leukemia
KM12 colon = test system: KM12 colon
LOX IMVI melanoma = test system: LOX IMVI melanoma
M14 melanoma = test system: M14 melanoma
MALME-3M melanoma = test system: MALME-3M melanoma
MCF7 breast = test system: MCF7 breast
MDA-MB-231 breast = test system: MDA-MB-231 breast
MDA-MB-435 = test system: MDA-MB-435
MOLT-4 leukemia = test system: MOLT-4 leukemia
NCI-H226 lung = test system: NCI-H226 lung
NCI-H23 lung = test system: NCI-H23 lung
NCI-H460 lung = test system: NCI-H460 lung
NCI-H522 lung = test system: NCI-H522 lung
NCI/ADR-RES ovarian = test system: NCI/ADR-RES ovarian
OVCAR-3 ovarian = test system: OVCAR-3 ovarian
OVCAR-4 ovarian = test system: OVCAR-4 ovarian
OVCAR-5 ovarian = test system: OVCAR-5 ovarian
OVCAR-8 ovarian = test system: OVCAR-8 ovarian
PC-3 prostate = test system: PC-3 prostate
RPMI-8226 leukemia = test system: RPMI-8226 leukemia
RXF 393 renal = test system: RXF 393 renal
SF-295 CNS = test system: SF-295 CNS
SF-539 CNS = test system: SF-539 CNS
SK-MEL-2 melanoma = test system: SK-MEL-2 melanoma
SK-MEL-28 melanoma = test system: SK-MEL-28 melanoma
SK-MEL-5 melanoma = test system: SK-MEL-5 melanoma
SK-OV-3 ovarian = test system: SK-OV-3 ovarian
SN12C renal = test system: SN12C renal
SNB-19 CNS = test system: SNB-19 CNS
SNB-75 CNS = test system: SNB-75 CNS
SR leukemia = test system: SR leukemia
T-47D breast = test system: T-47D breast
TK-10 renal = test system: TK-10 renal
U251 CNS = test system: U251 CNS
UACC-257 melanoma = test system: UACC-257 melanoma
UACC-62 melanoma = test system: UACC-62 melanoma
UO-31 renal = test system: UO-31 renal
SF-268 CNS = test system: SF-268 CNS
SW-620 colon = test system: SW-620 colon

Compound `Nc1ncnc2c1c(-c1ccc(Oc3ccccc3)cc1)nn2C[C@H]1SSC[C@@H]1O` has a GI50 (786-0 renal) of 3.09 µM, a TGI (786-0 renal) of 12 µM and a GI50 (A498 renal) of 1.66 µM. The TGI (A498 renal) was 4.44 µM, the GI50 (A549 NSCLC) was 0.519 µM and the TGI (A549 NSCLC) was 6.81 µM. It also gave a GI50 (ACHN renal) of 0.482 µM, a TGI (ACHN renal) of 9.3 µM and a GI50 (BT-549 breast) of 3.63 µM. The TGI (BT-549 breast) was 13.5 µM, the GI50 (CAKI-1 renal) was 1.62 µM and the TGI (CAKI-1 renal) was 12.7 µM. The GI50 (CCRF-CEM leukemia) was 0.2 µM, the TGI (CCRF-CEM leukemia) was 6.28 µM and the GI50 (COLO 205 colon) was 2.06 µM. The TGI (COLO 205 colon) was 9.82 µM, the GI50 (DU-145 prostate) was 1.7 µM and the TGI (DU-145 prostate) was 10.6 µM. The GI50 (EKVX NSCLC) was 0.365 µM, the TGI (EKVX NSCLC) was 12.1 µM and the GI50 (HCC-2998 colon) was 3.3 µM. For the same compound, the TGI (HCC-2998 colon) was 27.6 µM, the GI50 (HCT-116 colon) was 0.332 µM and the TGI (HCT-116 colon) was 12.3 µM. For the same compound, the GI50 (HCT-15 colon) was 0.622 µM, the TGI (HCT-15 colon) was 16.4 µM and the GI50 (HL-60(TB) leukemia) was 1.52 µM. The TGI (HL-60(TB) leukemia) was 4.84 µM, the GI50 (HOP-62 NSCLC) was 0.26 µM and the TGI (HOP-62 NSCLC) was 3.15 µM. For the same compound, the GI50 (HOP-92 NSCLC) was 1.62 µM, the TGI (HOP-92 NSCLC) was 7.15 µM and the GI50 (HS 578T breast) was 2.81 µM. It also gave a TGI (HS 578T breast) of 10.6 µM, a GI50 (HT29 colon) of 0.304 µM and a TGI (HT29 colon) of 7.35 µM. The GI50 (IGROV1 ovarian) was 1.43 µM, the TGI (IGROV1 ovarian) was 8.11 µM and the GI50 (K-562 leukemia) was 0.342 µM. For the same compound, the TGI (K-562 leukemia) was 4.08 µM, the GI50 (KM12 colon) was 0.242 µM and the TGI (KM12 colon) was 16.4 µM. It also gave a GI50 (LOX IMVI melanoma) of 0.257 µM, a TGI (LOX IMVI melanoma) of 1.79 µM and a GI50 (M14 melanoma) of 0.071 µM. The TGI (M14 melanoma) was 0.206 µM, the GI50 (MALME-3M melanoma) was 0.826 µM and the TGI (MALME-3M melanoma) was 3.94 µM. For the same compound, the GI50 (MCF7 breast) was 0.289 µM, the TGI (MCF7 breast) was 4.37 µM and the GI50 (MDA-MB-231 breast) was 0.934 µM. The TGI (MDA-MB-231 breast) was 7.84 µM, the GI50 (MDA-MB-435) was 0.162 µM and the TGI (MDA-MB-435) was 0.324 µM. The GI50 (MOLT-4 leukemia) was 0.0825 µM, the TGI (MOLT-4 leukemia) was 0.361 µM and the GI50 (NCI-H226 lung) was 1.73 µM. The TGI (NCI-H226 lung) was 5.15 µM, the GI50 (NCI-H23 lung) was 0.83 µM and the TGI (NCI-H23 lung) was 21.4 µM. The GI50 (NCI-H460 lung) was 0.0445 µM, the TGI (NCI-H460 lung) was 0.206 µM and the GI50 (NCI-H522 lung) was 3.85 µM. For the same compound, the TGI (NCI-H522 lung) was 14 µM, the GI50 (NCI/ADR-RES ovarian) was 2.73 µM and the TGI (NCI/ADR-RES ovarian) was 37.1 µM. For the same compound, the GI50 (OVCAR-3 ovarian) was 0.251 µM, the TGI (OVCAR-3 ovarian) was 0.684 µM and the GI50 (OVCAR-4 ovarian) was 1.44 µM. For the same compound, the TGI (OVCAR-4 ovarian) was 19.8 µM, the GI50 (OVCAR-5 ovarian) was 6.35 µM and the TGI (OVCAR-5 ovarian) was 41 µM. It also gave a GI50 (OVCAR-8 ovarian) of 0.523 µM, a TGI (OVCAR-8 ovarian) of 15.9 µM and a GI50 (PC-3 prostate) of 3.01 µM. The TGI (PC-3 prostate) was 18.2 µM, the GI50 (RPMI-8226 leukemia) was 4.2 µM and the TGI (RPMI-8226 leukemia) was 20.4 µM. It also gave a GI50 (RXF 393 renal) of 1.74 µM, a TGI (RXF 393 renal) of 5.75 µM and a GI50 (SF-295 CNS) of 1.95 µM. It also gave a TGI (SF-295 CNS) of 9.9 µM, a GI50 (SF-539 CNS) of 1.41 µM and a TGI (SF-539 CNS) of 12 µM. The GI50 (SK-MEL-2 melanoma) was 0.262 µM, the TGI (SK-MEL-2 melanoma) was 2.33 µM and the GI50 (SK-MEL-28 melanoma) was 0.147 µM. The TGI (SK-MEL-28 melanoma) was 0.403 µM, the GI50 (SK-MEL-5 melanoma) was 0.545 µM and the TGI (SK-MEL-5 melanoma) was 1.79 µM. For the same compound, the GI50 (SK-OV-3 ovarian) was 0.593 µM, the TGI (SK-OV-3 ovarian) was 3.71 µM and the GI50 (SN12C renal) was 1.36 µM. The TGI (SN12C renal) was 13.2 µM, the GI50 (SNB-19 CNS) was 1.4 µM and the TGI (SNB-19 CNS) was 12 µM. The GI50 (SNB-75 CNS) was 3.02 µM, the TGI (SNB-75 CNS) was 14.8 µM and the GI50 (SR leukemia) was 0.165 µM. It also gave a TGI (SR leukemia) of 0.627 µM, a GI50 (T-47D breast) of 0.685 µM and a TGI (T-47D breast) of 3.63 µM. For the same compound, the GI50 (TK-10 renal) was 0.585 µM, the TGI (TK-10 renal) was 2.54 µM and the GI50 (U251 CNS) was 1.45 µM. It also gave a TGI (U251 CNS) of 13.2 µM, a GI50 (UACC-257 melanoma) of 0.374 µM and a TGI (UACC-257 melanoma) of 16.1 µM. The GI50 (UACC-62 melanoma) was 0.276 µM, the TGI (UACC-62 melanoma) was 0.939 µM and the GI50 (UO-31 renal) was 1.68 µM. The TGI (UO-31 renal) was 5.7 µM.

For `CNC(=O)c1cc2nc3ccccc3c(=O)n2c2ccccc12`, the TGI (786-0 renal) was > 10 µM, the TGI (A498 renal) was > 10 µM and the TGI (A549 NSCLC) was > 10 µM. For the same compound, the TGI (ACHN renal) was > 10 µM, the TGI (BT-549 breast) was > 10 µM and the TGI (CAKI-1 renal) was > 10 µM. The TGI (CCRF-CEM leukemia) was > 10 µM, the TGI (COLO 205 colon) was > 10 µM and the TGI (DU-145 prostate) was > 10 µM. For the same compound, the TGI (EKVX NSCLC) was > 10 µM, the TGI (HCC-2998 colon) was > 10 µM and the TGI (HCT-116 colon) was > 10 µM. The TGI (HCT-15 colon) was > 10 µM, the TGI (HL-60(TB) leukemia) was > 10 µM and the TGI (HOP-62 NSCLC) was > 10 µM. The TGI (HOP-92 NSCLC) was > 10 µM, the TGI (HS 578T breast) was > 10 µM and the TGI (HT29 colon) was > 10 µM. The TGI (IGROV1 ovarian) was > 10 µM, the TGI (K-562 leukemia) was > 10 µM and the TGI (KM12 colon) was > 10 µM. The TGI (LOX IMVI melanoma) was > 10 µM, the TGI (M14 melanoma) was > 10 µM and the TGI (MALME-3M melanoma) was > 10 µM. The TGI (MCF7 breast) was > 10 µM, the TGI (MDA-MB-231 breast) was > 10 µM and the TGI (MDA-MB-435) was > 10 µM. The TGI (MOLT-4 leukemia) was > 10 µM, the TGI (NCI-H226 lung) was > 10 µM and the TGI (NCI-H23 lung) was > 10 µM. For the same compound, the TGI (NCI-H522 lung) was > 10 µM, the TGI (NCI/ADR-RES ovarian) was > 10 µM and the TGI (OVCAR-3 ovarian) was > 10 µM. For the same compound, the TGI (OVCAR-4 ovarian) was > 10 µM, the TGI (OVCAR-5 ovarian) was > 10 µM and the TGI (OVCAR-8 ovarian) was > 10 µM. The TGI (PC-3 prostate) was > 10 µM, the TGI (RPMI-8226 leukemia) was > 10 µM and the TGI (RXF 393 renal) was > 10 µM. For the same compound, the TGI (SF-268 CNS) was > 10 µM, the TGI (SF-295 CNS) was > 10 µM and the TGI (SF-539 CNS) was > 10 µM. The TGI (SK-MEL-2 melanoma) was > 10 µM, the TGI (SK-MEL-28 melanoma) was > 10 µM and the TGI (SK-MEL-5 melanoma) was > 10 µM. For the same compound, the TGI (SK-OV-3 ovarian) was > 10 µM, the TGI (SN12C renal) was > 10 µM and the TGI (SNB-19 CNS) was > 10 µM. The TGI (SR leukemia) was > 10 µM, the TGI (SW-620 colon) was > 10 µM and the TGI (T-47D breast) was > 10 µM. For the same compound, the TGI (TK-10 renal) was > 10 µM, the TGI (U251 CNS) was > 10 µM and the TGI (UACC-257 melanoma) was > 10 µM. For the same compound, the TGI (UACC-62 melanoma) was > 10 µM and the TGI (UO-31 renal) was > 10 µM.
